Results as given in PMC6576746, “Rational discovery of dual-indication multi-target PDE/Kinase inhibitor for precision anti-cancer therapy using structural systems pharmacology” (PLoS Computational Biology, 2019).

Assays:
Test in all cases: cells
Set-up in all cases: species or system panel of human cancer cell lines; Eurofins OncoPanel proliferation; nuclei count by high-content fluorescence imaging, 10-point dose response
RKOE6 = conditions: Homo sapiens, RKOE6, 72 h, cell count, 3 days
How it was run: (§1)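 Cells in RPMI 1640/10% FBS or special medium received compound the day after seeding, with a time-zero plate; 3-day incubation at 37°C, 5% CO2. Nuclei imaged by fluorescence microscopy; 10 half-log doses from 100 μM, 0.1% DMSO. EC50, IC50, GI50 and activity area (0–10) from curve fits.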

MT-3 = conditions: MT-3, 72 h, cell count, 3 days
How it was run: as §1

KU812 = conditions: Homo sapiens, KU812, 72 h, cell count, 3 days
How it was run: as §1

K562 = conditions: Homo sapiens, K562, 72 h, cell count, 3 days
How it was run: as §1

22Rv1 = conditions: Homo sapiens, 22Rv1, 72 h, cell count, 3 days
How it was run: as §1

Hs 852.T = conditions: 72 h, cell count, 3 days
How it was run: as §1

Raji = conditions: Homo sapiens, Raji, 72 h, cell count, 3 days
How it was run: as §1

HCT-8 = conditions: Homo sapiens, HCT-8, 72 h, cell count, 3 days
How it was run: as §1

AN3 CA = conditions: Homo sapiens, AN3-CA, 72 h, cell count, 3 days
How it was run: as §1

SW48 = conditions: Homo sapiens, SW48, 72 h, cell count, 3 days
How it was run: as §1

Detroit 562 = conditions: Homo sapiens, Detroit 562, 72 h, cell count, 3 days
How it was run: as §1

M059J = conditions: Homo sapiens, M059J, 72 h, cell count, 3 days
How it was run: as §1

OE21 = conditions: OE21, 72 h, cell count, 3 days
How it was run: as §1

SU-DHL-4 = conditions: Homo sapiens, SU-DHL-4, 72 h, cell count, 3 days
How it was run: as §1

[1] = 50% of maximum possible response

C[C@@H]1CC(=O)NN=C1c1ccc(NN=C(C#N)C#N)cc1 [levosimendan]
IC50 (RKOE6; [1]): 7.12 µM
GI50 (RKOE6; corrected for time zero): 6.28 µM
EC50 (RKOE6; curve inflection point): 6.96 µM
IC50 (MT-3; [1]): > 100 µM
GI50 (MT-3; corrected for time zero): > 100 µM
EC50 (MT-3; curve inflection point): > 100 µM
IC50 (KU812; [1]): 70.3 µM
GI50 (KU812; corrected for time zero): 48.8 µM
EC50 (KU812; curve inflection point): 70.3 µM
IC50 (K562; [1]): 44.4 µM
GI50 (K562; corrected for time zero): 38.5 µM
EC50 (K562; curve inflection point): 44.4 µM
IC50 (22Rv1; [1]): 55.6 µM
GI50 (22Rv1; corrected for time zero): 45.8 µM
EC50 (22Rv1; curve inflection point): 55.6 µM
IC50 (Hs 852.T; [1]): 82.2 µM
GI50 (Hs 852.T; corrected for time zero): 25 µM
EC50 (Hs 852.T; curve inflection point): 82.2 µM
IC50 (Raji; [1]): 69.1 µM
GI50 (Raji; corrected for time zero): 63.4 µM
EC50 (Raji; curve inflection point): 69.1 µM
IC50 (HCT-8; [1]): 23.9 µM
GI50 (HCT-8; corrected for time zero): 23.3 µM
EC50 (HCT-8; curve inflection point): 23.2 µM
IC50 (AN3 CA; [1]): 21.2 µM
GI50 (AN3 CA; corrected for time zero): 11.6 µM
EC50 (AN3 CA; curve inflection point): 21.2 µM
IC50 (SW48; [1]): 13.5 µM
GI50 (SW48; corrected for time zero): 9.81 µM
EC50 (SW48; curve inflection point): 13.5 µM
IC50 (Detroit 562; [1]): 50.9 µM
GI50 (Detroit 562; corrected for time zero): 28.4 µM
EC50 (Detroit 562; curve inflection point): 50.9 µM
IC50 (M059J; [1]): 51.5 µM
GI50 (M059J; corrected for time zero): 38.5 µM
EC50 (M059J; curve inflection point): 48.8 µM
IC50 (OE21; [1]): 85.5 µM
GI50 (OE21; corrected for time zero): 76 µM
EC50 (OE21; curve inflection point): 85.5 µM
IC50 (SU-DHL-4; [1]): 4.77 µM
GI50 (SU-DHL-4; corrected for time zero): 3.31 µM
EC50 (SU-DHL-4; curve inflection point): 0.944 µM
